Assay results reported in patent publication US20240124387A1, “ACID RECOVERY” (GREENCOVERY B.V., priority 2021, published 2024).
Marks after values point to notes of the source that are not given here.

What was measured:
[1] = Precipitation stage: eluate (desorption) samples sparged with CO2, acid quantified again; format: physicochemical; conditions: for reduction of amino acid concentration in solution (in the eluate) after CO2 sparging: eluate samples with highest amino acid content, 0.425 M KOH in 93.5 wt. % ethanol; for reduction of organic acid concentration in solution after sparging with CO2: desorption samples of Example 1 (90 wt. % ethanol, 1M KOH)
Method: In the precipitation stage, the desorption samples were sparged with CO2, and the organic acids were quantified again the precipitation stage.
The eluate was separated into four samples of 7.5 mL each.

[2] = Precipitation with CO2 in solutions containing different amino acids, ethanol and water (table 3); format: physicochemical; conditions: for Concentration of amino acid in the liquid, Before precipitation / Concentration of amino acid in the liquid, After precipitation / Precipitate: 0.5M NaOH; for Concentration of amino acid in the liquid, After precipitation / Precipitate: after CO2; for Precipitate: includes sodium (bi)carbonate; for share of the amino acid precipitated when providing CO2: 80 wt. % ethanol
Excerpt: A variety of eluates, comprising different amino acids, and solvent concentrations were subjected to the precipitation stage as summarized in table 3: […]

[3] = second 7.5 mL eluate sample, 90 wt. % methanol, 0.85M KOH
[4] = 20 wt. % water, 80% wt. % ethanol
[5] = 37.6 wt. % water, 62.4 wt. % ethanol
[6] = 50 wt. % water, 50 wt. % ethanol

Row | SMILES | concentration in eluate sample after CO2 sparging [1, 3] | concentration in eluate sample before CO2 sparging [1, 3] | reduction of amino acid concentration in solution (in the eluate) after CO2 sparging [1] | Concentration of amino acid in the liquid, Before precipitation [2, 4] | Concentration of amino acid in the liquid, After precipitation [2, 4] | Precipitate [2, 4] | Concentration of amino acid in the liquid, Before precipitation [2, 5] | Concentration of amino acid in the liquid, After precipitation [2, 5] | Precipitate [2, 5] | behaviour of the amino acid when providing CO2 ([2]; 50 wt. % ethanol) | Concentration of amino acid in the liquid, Before precipitation [2, 6] | Concentration of amino acid in the liquid, After precipitation [2, 6] | Precipitate [2, 6] | behaviour of the amino acid when providing CO2 ([2]; 62.4% ethanol) | share of the amino acid precipitated when providing CO2 [2] | reduction of organic acid concentration in solution after sparging with CO2 [1] | reduction of glutamic acid concentration in solution after CO2 sparging ([1]; 0.85 M KOH in 90 wt. % ethanol (AA4)) | reduction of glutamic acid concentration in solution after CO2 sparging ([1]; 1M NaOH in 62.4 wt. % ethanol (AA5))
1 | CC(=O)O [acetate] | 24300 µg/mL | 24600 µg/mL | – | – | – | – | – | – | – | – | – | – | – | – | – | – | – | –
2 | C[C@H](N)C(=O)O [alanine, L-alanine] | – | – | ~31% | – | – | – | – | – | – | – | – | – | – | – | – | – | – | –
3 | N[C@@H](CCC(=O)[O-])C(=O)[O-].[Na+].[Na+] [Sodium glutamate] | – | – | – | 10.1* g/L | 800 µg/mL | 35.5 g/L | 10.1 g/L | 4300 µg/mL | 34.1 g/L | remained in solution | 10.1 g/L | 10800 µg/mL | 17.5 g/L | partially precipitated | over 90% | – | – | –
4 | NCCCC[C@H](N)C(=O)O [Lysine] | – | – | – | 10.3 g/L | 3400 µg/mL | 32.5 g/L | 10.4 g/L | 10300 µg/mL | 22.0 g/L | – | 10.3 g/L | 10600 µg/mL | 25.9 g/L | – | – | – | – | –
5 | CCCCCC(=O)O [caproate, caproic acid] | – | – | – | – | – | – | – | – | – | – | – | – | – | – | – | (essentially) no reduction | – | –
6 | CSCC[C@H](N)C(=O)O [Methionine] | – | – | – | 10.2 g/L | 4100 µg/mL | 27.4 g/L | 10.2 g/L | 9600 µg/mL | 21.2 g/L | – | 10.3 g/L | 9600 µg/mL | 15.2 g/L | – | – | – | – | –
7 | N[C@@H](Cc1ccccc1)C(=O)O [Phenylalanine] | – | – | – | 10.3 g/L | 3600 µg/mL | 27.4 g/L | 10.2 g/L | 9100 µg/mL | 20.6 g/L | – | 10.3 g/L | 10300 µg/mL | 16.9 g/L | – | – | – | – | –
8 | CC(O)C(=O)O (stereo not drawn) [lactate, lactic acid] | – | – | – | – | – | – | – | – | – | – | – | – | – | – | – | (essentially) no reduction | – | –
9 | N[C@@H](CCC(=O)O)C(=O)O [Glutamic acid] | – | – | approximately 68% | 10.1* g/L | 700 µg/mL | 33.7 g/L | 10.1 g/L | 4800 µg/mL | 30.5 g/L | – | – | – | – | – | – | – | approximately 74% | approximately 90%
10 | CC(C)C[C@H](N)C(=O)O [Leucine, L-leucine] | – | – | > 99% | 10.3 g/L | 9100 µg/mL | 20.7 g/L | 9.6 g/L | 9700 µg/mL | 18.1 g/L | remained in solution | 10.2 g/L | 10200 µg/mL | 12.6 g/L | remained in solution | less than 10% | – | – | –
